The structures appear in SMILES notation.

The assay deals with T1, βarr1 (Homo sapiens, UniProt P49407, C125S/C140L/C150V/C242V/C251V/C269S/C59V/D390C).
T1 construct: we started from a full-length functional cysteine-less βarr1 construct[20]; 6xHis-tag with SSG linker and thrombin cleavage site (N, cleaved yes); made in house; host or cells: E. coli BL21(DE3)
As to the kind of experiment: 19F NMR titration of V2Rpp or PIP2 into βarr1 (activation). The assay is classed as biochemical. Particulars: V2Rpp up to 1.2:1, PIP2 up to 3.0:1 molar ratio. As to the method: All ^19F NMR spectra were recorded at 298 K using a Bruker AVANCE III HD 800 MHz spectrometer equipped with a ^1H-^19F/^13C/^15N TCI triple resonance cryogenic probe. All data were acquired and processed using the Bruker Topspin 4.2.0 software. For all 1D ^19F NMR experiments, the traditional one-pulse sequence was used. The carrier frequency was set to −68.0 ppm and the spectra were recorded with 4k points and a spectral width of 15,000 Hz. Because accurate calibration of the 90° excitation pulse length for individual samples is not practical due to the low protein concentrations, we used the 90° pulse length calibrated from a standard sample (0.05% Trifluoro-toluene in CDCl3) for all βarr1 samples. […] Therefore, all the ^19F experiments were conducted with a 100 ms relaxation delay, and acquired using 100,000–200,000 scans depending on the sample condition, yielding a signal-to-noise (S/N) ratio of approximately 50. […]
All NMR data were analyzed using the MestraNova 12.0.0 software (https://mnova.pl). […] Peak intensities, integrated peak area and linewidths were determined based on the fitted results. […]
(c) Estimation of the V2Rpp-βarr1 binding affinity based on peak intensity changes of the D390C site of βarr1 titrated with V2Rpp. […] The values of θ were calculated as by θ = V-,⁄(V-. + V-,), in which VS1 and VS2 correspond to the volume integrals of the peaks of S1 and S2 states, respectively. […]

T1 sequence (P49407 whole entry C59V/C125S/C140L/C150V/C242V/C251V/C269S/D390C): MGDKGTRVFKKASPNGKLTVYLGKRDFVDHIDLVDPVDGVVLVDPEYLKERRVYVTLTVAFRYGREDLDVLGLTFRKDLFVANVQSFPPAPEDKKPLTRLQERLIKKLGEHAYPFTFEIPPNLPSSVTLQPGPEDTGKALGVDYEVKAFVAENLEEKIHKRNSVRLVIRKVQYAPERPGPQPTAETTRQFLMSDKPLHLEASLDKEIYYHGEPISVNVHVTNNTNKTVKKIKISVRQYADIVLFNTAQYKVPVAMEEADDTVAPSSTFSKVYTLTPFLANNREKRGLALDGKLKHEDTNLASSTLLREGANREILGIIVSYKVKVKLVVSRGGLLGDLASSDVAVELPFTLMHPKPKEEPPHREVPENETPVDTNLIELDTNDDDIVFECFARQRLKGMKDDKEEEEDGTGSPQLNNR

Consider `CCCCCCCC(=O)OC[C@H](COP(=O)(O)O[C@@H]1[C@H](O)[C@H](O)[C@@H](OP(=O)(O)O)[C@H](OP(=O)(O)O)[C@H]1O)OC(=O)CCCCCCC` [PIP2, diC8-PI(4,5)P2], for which the “Activation of βarr1 at D390C on titration” value (D390C site) is “minimally affects”. Moreover, for the setting “H295C site”, the “Activation of βarr1 at H295C on titration” value is listed as “partially activates”.

The record behind these values is paper PMC10686989, “Distinct activation mechanisms of β-arrestin-1 revealed by ^19F NMR spectroscopy” (Nature Communications, 2023).
